From patent publication US20240269139A1, “COMPOUNDS FOR TARGETED PROTEIN DEGRADATION OF KINASES” (DANA-FARBER CANCER INSTITUTE, INC., priority 2020, published 2024)
Where two headings read alike, the source gives them in different places.

What was measured:
Format in all cases: cell-based
[1] = target: T1, protein kinases (human kinome) (Homo sapiens, UniProt O14965); settings: experiment wp016
T1 sequence (O14965 1-403): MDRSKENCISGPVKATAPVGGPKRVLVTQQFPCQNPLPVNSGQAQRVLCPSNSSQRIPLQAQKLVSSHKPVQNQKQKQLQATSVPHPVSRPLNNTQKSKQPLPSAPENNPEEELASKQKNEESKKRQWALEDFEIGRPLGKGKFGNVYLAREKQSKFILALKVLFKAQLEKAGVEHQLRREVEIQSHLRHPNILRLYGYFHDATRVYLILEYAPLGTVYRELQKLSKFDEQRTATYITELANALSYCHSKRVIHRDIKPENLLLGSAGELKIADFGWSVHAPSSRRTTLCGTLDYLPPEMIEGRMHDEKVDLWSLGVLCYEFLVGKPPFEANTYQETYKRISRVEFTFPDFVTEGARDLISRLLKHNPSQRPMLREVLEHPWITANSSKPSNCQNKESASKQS
Text: (§1) Although development of targeted protein degraders requires a POI binder, among already-liganded proteins such as kinases, it was hypothesized that different targets would have a different propensity for current approaches to degrader-mediated destruction, which was termed ‘degradability’. […] It was rationalized that the probability of identifying the same kinase as a false positive in multiple treatments is low, therefore this analysis served to also assess the robustness of our data and subsequent interpretations. […] Overall, 62 protein kinases were degraded in more than 10 independent treatments, and remarkably, 9 of these (CDK4, AURKA, FER, WEE1, BLK. LIMK2, CDK6, GAK, LIMK1) were each degraded in at least 40 of the 154 independent treatments, emphasizing their predisposition to induced degradation (FIG. 1G; Appendix I).
(§2) Next, the frequency of degradation assessment was corrected for over-representation of molecules in the full dataset by omitting replicate profiling of compounds under different experimental conditions, to remove any bias. […] Unsurprisingly, the top degradable kinases mirror those from the previous analysis (CDK4, AURKA, FER, WEE1, BLK), confirming that in sufficiently large datasets, even with over-representation of certain molecules, frequency of degradation is a good measure of general tractability.

[2] = target: protein kinases (human kinome) (Homo sapiens, UniProt O94804); settings: STK10 (O94804), experiment wp016
Text: as §1, §2

[3] = target: protein kinases (human kinome) (Homo sapiens, UniProt P11802); settings: experiment wp016
Text: as §1, §2

[4] = target: protein kinases (human kinome) (Homo sapiens, UniProt P16591)
Text: as §1, §2

[5] = target: protein kinases (human kinome) (Homo sapiens, UniProt P24941); settings: experiment wp016
Text: as §1, §2

[6] = target: protein kinases (human kinome) (Homo sapiens, UniProt P30291); settings: experiment wp016
Text: as §1, §2

[7] = target: protein kinases (human kinome) (Homo sapiens, UniProt P50613)
Text: as §1, §2

[8] = target: protein kinases (human kinome) (Homo sapiens, UniProt P51451)
Text: as §1, §2

[9] = target: protein kinases (human kinome) (Homo sapiens, UniProt P53671); settings: experiment wp016
Text: as §1, §2

[10] = target: protein kinases (human kinome) (Homo sapiens, UniProt Q00534)
Text: as §1, §2

[11] = target: protein kinases (human kinome) (Homo sapiens, UniProt Q00535); settings: experiment wp016
Text: as §1, §2

[12] = target: protein kinases (human kinome) (Homo sapiens, UniProt Q00537); settings: experiment wp016
Text: as §1, §2

[13] = target: T2, protein kinases (human kinome) (Homo sapiens, UniProt Q08881); settings: experiment wp016
T2 sequence (Q08881 1-620): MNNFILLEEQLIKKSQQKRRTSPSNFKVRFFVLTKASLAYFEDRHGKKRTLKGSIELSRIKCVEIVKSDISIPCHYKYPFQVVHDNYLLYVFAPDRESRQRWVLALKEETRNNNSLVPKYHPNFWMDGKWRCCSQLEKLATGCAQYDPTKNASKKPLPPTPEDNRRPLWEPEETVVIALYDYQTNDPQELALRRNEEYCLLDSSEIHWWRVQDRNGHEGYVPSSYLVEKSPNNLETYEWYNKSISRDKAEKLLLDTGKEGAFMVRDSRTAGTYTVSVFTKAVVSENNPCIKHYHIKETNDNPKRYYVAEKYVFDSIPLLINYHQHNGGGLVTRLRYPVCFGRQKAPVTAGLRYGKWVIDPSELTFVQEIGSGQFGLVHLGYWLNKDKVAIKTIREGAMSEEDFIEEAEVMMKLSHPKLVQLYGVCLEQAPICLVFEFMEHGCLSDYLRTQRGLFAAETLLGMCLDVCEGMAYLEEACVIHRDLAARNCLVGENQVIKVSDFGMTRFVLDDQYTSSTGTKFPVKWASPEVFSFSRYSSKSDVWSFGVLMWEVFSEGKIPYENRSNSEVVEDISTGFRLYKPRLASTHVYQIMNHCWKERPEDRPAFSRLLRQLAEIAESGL
Text: as §1, §2

[14] = target: protein kinases (human kinome) (Homo sapiens, UniProt Q14004); settings: experiment wp016
Text: as §1, §2

[15] = target: protein kinases (human kinome) (Homo sapiens, UniProt Q14289)
Text: as §1, §2

[16] = target: protein kinases (human kinome) (Homo sapiens, UniProt Q2M2I8); settings: experiment wp016
Text: as §1, §2

[17] = target: protein kinases (human kinome) (Homo sapiens, UniProt Q9NSY1); settings: BMP2K Q9NSY1; experiment wp016
Text: as §1, §2

[18] = target: protein kinases (human kinome) (Homo sapiens, UniProt Q9NYV4); settings: experiment wp016
Text: as §1, §2

[19] = system: protein kinases (human kinome)
Text: as §1, §2

Sequence of protein kinases (human kinome) (Homo sapiens, UniProt Q00535) (Q00535 whole entry): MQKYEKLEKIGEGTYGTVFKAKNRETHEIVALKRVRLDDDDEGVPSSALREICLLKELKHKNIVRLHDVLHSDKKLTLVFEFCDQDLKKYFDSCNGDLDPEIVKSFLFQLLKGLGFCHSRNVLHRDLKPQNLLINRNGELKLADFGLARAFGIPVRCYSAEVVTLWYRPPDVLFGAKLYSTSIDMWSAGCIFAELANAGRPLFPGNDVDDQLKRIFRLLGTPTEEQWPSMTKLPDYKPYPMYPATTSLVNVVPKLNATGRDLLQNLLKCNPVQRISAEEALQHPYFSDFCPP
Sequence of protein kinases (human kinome) (Homo sapiens, UniProt Q9NSY1) (Q9NSY1 whole entry): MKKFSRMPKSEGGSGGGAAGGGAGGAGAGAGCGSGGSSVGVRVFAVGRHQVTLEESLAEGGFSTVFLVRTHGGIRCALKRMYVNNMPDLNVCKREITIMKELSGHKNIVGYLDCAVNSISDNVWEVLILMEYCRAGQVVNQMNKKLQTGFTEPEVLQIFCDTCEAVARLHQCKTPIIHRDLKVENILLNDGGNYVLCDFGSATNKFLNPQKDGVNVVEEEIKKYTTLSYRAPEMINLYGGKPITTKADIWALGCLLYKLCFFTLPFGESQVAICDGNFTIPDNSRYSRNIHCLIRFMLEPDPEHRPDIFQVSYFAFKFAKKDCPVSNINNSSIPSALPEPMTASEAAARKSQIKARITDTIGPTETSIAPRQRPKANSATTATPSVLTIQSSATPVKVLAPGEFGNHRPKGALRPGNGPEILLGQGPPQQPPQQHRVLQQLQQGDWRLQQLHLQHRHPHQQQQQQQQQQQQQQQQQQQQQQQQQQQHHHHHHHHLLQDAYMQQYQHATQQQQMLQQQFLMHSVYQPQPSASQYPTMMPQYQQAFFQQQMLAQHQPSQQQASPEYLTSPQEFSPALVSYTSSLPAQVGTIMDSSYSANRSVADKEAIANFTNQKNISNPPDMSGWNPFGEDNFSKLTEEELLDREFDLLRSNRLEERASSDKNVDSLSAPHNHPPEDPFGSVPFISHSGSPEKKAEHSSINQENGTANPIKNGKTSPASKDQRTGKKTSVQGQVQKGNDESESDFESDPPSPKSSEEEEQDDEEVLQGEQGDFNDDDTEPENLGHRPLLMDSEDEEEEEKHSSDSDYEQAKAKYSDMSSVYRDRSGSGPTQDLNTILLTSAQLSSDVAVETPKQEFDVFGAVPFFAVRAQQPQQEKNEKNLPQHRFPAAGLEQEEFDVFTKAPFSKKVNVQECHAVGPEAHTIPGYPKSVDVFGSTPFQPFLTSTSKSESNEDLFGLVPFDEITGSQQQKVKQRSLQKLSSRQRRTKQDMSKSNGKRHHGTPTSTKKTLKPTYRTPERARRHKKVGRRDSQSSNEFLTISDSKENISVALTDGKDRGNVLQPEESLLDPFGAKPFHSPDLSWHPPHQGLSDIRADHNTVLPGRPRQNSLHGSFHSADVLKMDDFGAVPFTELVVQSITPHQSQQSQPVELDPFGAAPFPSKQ
Sequence of protein kinases (human kinome) (Homo sapiens, UniProt Q00537) (Q00537 whole entry): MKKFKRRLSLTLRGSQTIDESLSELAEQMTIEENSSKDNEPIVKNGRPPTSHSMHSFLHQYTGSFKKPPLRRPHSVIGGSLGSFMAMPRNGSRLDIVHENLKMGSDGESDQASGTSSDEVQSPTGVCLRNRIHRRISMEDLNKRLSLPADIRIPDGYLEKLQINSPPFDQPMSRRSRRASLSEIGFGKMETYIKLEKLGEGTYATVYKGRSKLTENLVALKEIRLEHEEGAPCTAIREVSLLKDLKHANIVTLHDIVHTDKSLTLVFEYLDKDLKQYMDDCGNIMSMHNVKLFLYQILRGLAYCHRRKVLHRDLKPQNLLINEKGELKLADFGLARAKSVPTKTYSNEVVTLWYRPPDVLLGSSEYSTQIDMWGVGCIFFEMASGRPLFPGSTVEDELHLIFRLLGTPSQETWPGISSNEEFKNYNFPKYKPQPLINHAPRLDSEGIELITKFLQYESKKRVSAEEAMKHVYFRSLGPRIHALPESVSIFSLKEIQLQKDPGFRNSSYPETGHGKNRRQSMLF
Sequence of protein kinases (human kinome) (Homo sapiens, UniProt P53671) (P53671 whole entry): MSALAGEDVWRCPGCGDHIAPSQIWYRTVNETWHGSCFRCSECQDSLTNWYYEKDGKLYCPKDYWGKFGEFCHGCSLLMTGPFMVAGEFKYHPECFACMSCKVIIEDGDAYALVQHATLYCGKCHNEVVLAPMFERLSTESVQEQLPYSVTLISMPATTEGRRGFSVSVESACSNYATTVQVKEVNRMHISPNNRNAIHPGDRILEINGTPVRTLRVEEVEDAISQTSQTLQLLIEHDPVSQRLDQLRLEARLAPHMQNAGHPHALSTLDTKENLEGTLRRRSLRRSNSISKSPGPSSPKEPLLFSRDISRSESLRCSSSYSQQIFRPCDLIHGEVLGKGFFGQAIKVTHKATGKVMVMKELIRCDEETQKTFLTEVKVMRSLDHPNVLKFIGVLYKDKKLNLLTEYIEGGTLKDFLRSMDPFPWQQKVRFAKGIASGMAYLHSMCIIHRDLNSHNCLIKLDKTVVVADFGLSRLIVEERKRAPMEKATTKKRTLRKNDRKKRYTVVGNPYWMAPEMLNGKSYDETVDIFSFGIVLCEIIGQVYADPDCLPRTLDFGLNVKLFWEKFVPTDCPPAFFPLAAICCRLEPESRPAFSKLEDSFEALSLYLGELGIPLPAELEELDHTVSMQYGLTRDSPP
Sequence of protein kinases (human kinome) (Homo sapiens, UniProt P11802) (P11802 whole entry): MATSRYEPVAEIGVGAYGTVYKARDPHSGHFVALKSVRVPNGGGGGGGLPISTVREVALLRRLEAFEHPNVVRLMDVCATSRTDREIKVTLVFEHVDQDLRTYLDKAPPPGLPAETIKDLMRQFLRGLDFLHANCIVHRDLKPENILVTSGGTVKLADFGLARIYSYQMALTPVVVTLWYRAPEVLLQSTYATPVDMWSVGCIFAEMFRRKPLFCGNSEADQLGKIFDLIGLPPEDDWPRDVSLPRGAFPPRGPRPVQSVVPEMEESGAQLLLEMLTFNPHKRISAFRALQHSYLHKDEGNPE
Sequence of protein kinases (human kinome) (Homo sapiens, UniProt Q2M2I8) (Q2M2I8 whole entry): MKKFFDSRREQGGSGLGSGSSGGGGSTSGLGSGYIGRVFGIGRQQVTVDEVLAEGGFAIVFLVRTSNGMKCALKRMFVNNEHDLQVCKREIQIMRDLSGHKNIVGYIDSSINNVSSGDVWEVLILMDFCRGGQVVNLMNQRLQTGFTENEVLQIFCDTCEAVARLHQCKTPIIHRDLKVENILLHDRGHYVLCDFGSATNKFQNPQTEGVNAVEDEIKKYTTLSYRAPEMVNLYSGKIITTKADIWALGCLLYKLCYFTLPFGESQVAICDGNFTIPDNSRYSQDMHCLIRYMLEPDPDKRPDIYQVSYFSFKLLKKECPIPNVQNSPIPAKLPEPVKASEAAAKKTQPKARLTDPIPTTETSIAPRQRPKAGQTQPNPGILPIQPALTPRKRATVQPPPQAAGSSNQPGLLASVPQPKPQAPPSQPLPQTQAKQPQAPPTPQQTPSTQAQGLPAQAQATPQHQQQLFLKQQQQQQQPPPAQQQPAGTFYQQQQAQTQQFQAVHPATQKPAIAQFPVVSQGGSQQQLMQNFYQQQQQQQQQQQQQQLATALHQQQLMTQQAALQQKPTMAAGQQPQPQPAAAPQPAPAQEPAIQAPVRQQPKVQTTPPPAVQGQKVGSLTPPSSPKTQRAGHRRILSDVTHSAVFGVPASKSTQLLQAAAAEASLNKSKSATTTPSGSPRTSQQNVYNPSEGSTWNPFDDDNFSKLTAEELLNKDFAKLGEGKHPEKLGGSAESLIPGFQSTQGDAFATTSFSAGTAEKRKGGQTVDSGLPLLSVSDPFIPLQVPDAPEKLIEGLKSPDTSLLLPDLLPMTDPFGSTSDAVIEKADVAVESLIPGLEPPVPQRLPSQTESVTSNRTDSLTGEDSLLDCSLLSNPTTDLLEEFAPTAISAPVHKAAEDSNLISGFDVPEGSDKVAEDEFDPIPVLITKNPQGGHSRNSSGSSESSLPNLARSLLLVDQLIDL
Sequence of protein kinases (human kinome) (Homo sapiens, UniProt P16591) (P16591 whole entry): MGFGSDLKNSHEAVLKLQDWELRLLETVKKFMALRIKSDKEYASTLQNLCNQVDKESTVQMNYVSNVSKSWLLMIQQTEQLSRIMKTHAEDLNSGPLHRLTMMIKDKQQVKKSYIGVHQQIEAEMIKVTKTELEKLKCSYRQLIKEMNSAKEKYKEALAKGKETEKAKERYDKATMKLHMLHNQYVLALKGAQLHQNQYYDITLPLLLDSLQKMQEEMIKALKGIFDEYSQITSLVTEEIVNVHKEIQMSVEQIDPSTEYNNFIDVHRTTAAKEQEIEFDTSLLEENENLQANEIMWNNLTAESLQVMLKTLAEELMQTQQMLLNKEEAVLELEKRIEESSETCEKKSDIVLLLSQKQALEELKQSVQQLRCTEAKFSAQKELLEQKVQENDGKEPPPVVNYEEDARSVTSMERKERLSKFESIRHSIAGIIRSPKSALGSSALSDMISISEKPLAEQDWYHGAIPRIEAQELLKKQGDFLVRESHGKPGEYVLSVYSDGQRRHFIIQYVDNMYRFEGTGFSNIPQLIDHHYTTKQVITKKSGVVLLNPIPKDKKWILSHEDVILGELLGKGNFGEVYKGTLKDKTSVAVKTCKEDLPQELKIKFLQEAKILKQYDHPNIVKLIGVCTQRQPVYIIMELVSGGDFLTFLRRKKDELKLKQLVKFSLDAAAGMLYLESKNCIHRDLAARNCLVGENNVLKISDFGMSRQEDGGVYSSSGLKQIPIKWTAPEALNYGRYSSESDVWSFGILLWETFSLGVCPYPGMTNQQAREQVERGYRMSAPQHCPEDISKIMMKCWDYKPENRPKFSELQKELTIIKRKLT
Sequence of protein kinases (human kinome) (Homo sapiens, UniProt Q00534) (Q00534 whole entry): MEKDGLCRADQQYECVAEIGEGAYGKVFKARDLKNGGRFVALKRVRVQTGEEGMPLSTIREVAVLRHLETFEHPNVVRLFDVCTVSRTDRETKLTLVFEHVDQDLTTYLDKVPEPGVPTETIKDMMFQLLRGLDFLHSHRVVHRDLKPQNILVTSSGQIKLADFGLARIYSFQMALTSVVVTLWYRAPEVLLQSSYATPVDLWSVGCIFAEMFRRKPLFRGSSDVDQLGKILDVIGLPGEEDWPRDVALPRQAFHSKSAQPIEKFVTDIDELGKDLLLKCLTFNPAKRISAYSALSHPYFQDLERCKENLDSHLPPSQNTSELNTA

CC(C)S(=O)(=O)c1ccccc1Nc1nc(Nc2ccc(N3CCN(CCOCCOCCNC(=O)CNc4ccc5c(c4)C(=O)N(C4CCC(=O)NC4=O)C5=O)CC3)cc2)ncc1Cl (stereo not drawn) [LT2.49]
logFC AURKA (O14965) [1]: −1.853
logFC [2]: −0.3336
logFC ([2]; direction down): −0.3336
logFC CDK4 (P11802) [3]: −0.8985
logFC of FER (P16591-1) ([4]; Experiment wp016, down): −2.467
logFC of FER ([4]; FER P16591-1, experiment wp016): −2.467
logFC CDK2 (P24941-1) [5]: −0.5177
logFC CDK2 (P24941-1) ([5]; direction of change down): −0.5177
logFC WEE1 (P30291-1) [6]: −1.314
logFC ([7]; CDK7 (P50613) protein abundance, degrader vs DMSO, down): −1.014
logFC CDK7 ([7]; CDK7 P50613, experiment wp016): −1.014
logFC of BLK ([8]; BLK P51451, experiment wp016): −1.613
logFC of BLK (P51451) ([8]; Experiment wp016, down): −1.613
logFC LIMK2 ([9]; LIMK2 (P53671), down): −0.9573
logFC of LIMK2 ([9]; LIMK2 P53671): −0.9573
logFC CDK6 ([10]; CDK6 (Q00534), direction down, experiment wp016): −0.6531
logFC of CDK6 (Q00534) ([10]; Experiment wp016, down): −0.6531
logFC of CDK5 ([11]; Accession Q00535): −0.8608
logFC CDK5 (Q00535) ([11]; direction of change down): −0.8608
logFC of CDK17 ([12]; Accession Q00537): −0.7544
logFC CDK17 (Q00537) ([12]; direction of change down): −0.7544
logFC ITK (Q08881) [13]: −2.212
logFC ITK (Q08881) ([13]; direction of change down): −2.212
logFC CDK13 ([14]; Accession Q14004-1): −0.3839
logFC CDK13 (Q14004-1) [14]: −0.3839
logFC ([15]; PTK2B (Q14289-1) protein abundance, degrader vs DMSO, down): −3.365
logFC PTK2B ([15]; PTK2B, accession Q14289-1, experiment wp016, direction of change down): −3.365
logFC AAK1 ([16]; AAK1 (Q2M218-1), down): −1.778
logFC AAK1 ([16]; AAK1, accession Q2M218-1, direction of change down): −1.778
logFC [17]: −0.5079
logFC BMP2K [17]: −0.5079
logFC CDK12 ([18]; Accession Q9NYV4-1): −0.868
logFC CDK12 ([18]; CDK12 (Q9NYV4-1)): −0.868
logFC ([19]; CDK9 (P50750-2) protein abundance, degrader vs DMSO, down): −0.6469
logFC PRKAA1 (Q13131-2) ([19]; Experiment wp016, direction down): −0.3739
logFC LCK ([19]; LCK, accession P06239-3, experiment wp016, direction of change down): −0.6186
logFC CDK9 (P50750-2) ([19]; experiment wp016): −0.6469
logFC PRKAA1 (Q13131-2) ([19]; experiment wp016): −0.3739
logFC LCK (P06239-3) ([19]; experiment wp016, direction of change down): −0.6186
